The nature of the data set: mn = molality of the nth substance listed, in mol/kg. Conditions: 100 kPa, Liquid, Pycnometric method.

Numbers after ± are expanded uncertainties.

By mass density is commonly meant mass per unit of volume. Turning to `O=[N+]([O-])[O-].[K+]` [potassium nitrate] + O, the mass density is, setting by setting: (293.15 K, m1 = 3.129) 1167 ± 12 kg/m3; (303.15 K, m1 = 4.532) 1217.1 ± 12 kg/m3; (313.15 K, m1 = 6.615) 1269.4 ± 13 kg/m3; (323.15 K, m1 = 8.465) 1321 ± 14 kg/m3.

With `[K+].[O]=[V](=[O])[O-]` [potassium vanadate] + O, the mass density reads like this: (293.15 K, m1 = 0.6199) 1060.4 ± 11 kg/m3; (303.15 K, m1 = 0.8756) 1081.6 ± 11 kg/m3; (313.15 K, m1 = 1.222) 1111 ± 11 kg/m3; (323.15 K, m1 = 1.908) 1156 ± 12 kg/m3.
